In patent publication US20100168079A1 (priority 2008, published 2010):
Where two headings read alike, the source gives them in different places.

What was measured:
circulating lymphocytes = test: Measurement of Circulating Lymphocytes; type: in vivo, Rats (Lewis strain, male); conditions: Rattus norvegicus, Lymphocyte, read-out: Residual Lymphocyte Counts 14 hours after 30 mg/kg p.o. dosing
Procedure: The compounds of formula (I) typically induce the depletion of blood lymphocyte as may be determined in the assay described below. Moreover, compounds of formula (I) are typically efficacious in the said assay also when administered via the per oral route of administration.
Measurement of Circulating Lymphocytes:
The test compounds (or salts thereof) are dissolved in a vehicle such as water, saline, PEG (polyethylene glycol) 200, or PBS (phosphate buffered saline). Rats (Lewis strain, male, 6-12 weeks old) are administered up to 100 mg/kg of the test compounds in 2 ml/kg vehicle via per oral or subcutaneous application. The vehicle or a reference salt and FTY720 (0.3 mg/kg) are included as negative and positive controls, respectively.
Blood is collected from the sublingual vein before and 2, 8 and 24 hours or 14, 18 and 24 hours after the test compound administration under short isoflurane anesthesia. Whole blood samples are subjected to hematology analysis. Peripheral lymphocyte counts are determined using an automated analyzer. The Haemathology System uses a combination of light scatter, cytochemical staining and nuclear density on two independent channels to measure the total and differential white cell counts. Two to four rats are used to assess the lymphocyte depletion activity of each compound screened. The data are presented as mean±SEM.

human S1P1 receptors = biological target: T1, human S1P1 receptors (Homo sapiens, UniProt P21453); test: Human S1P1 Receptor Calcium FLIPR Antagonist Assay (HeLa Gα16 S1P1); type: cell-based; conditions: relative antagonism of Ca2+ signal evoked by probing agonist GNF-AC-1 at EC80; HeLa-S1P1/Gα16 cells
T1 construct: myc (N); expressed in transfected cells; host or cells: HeLa (human cervix carcinoma, ATCC CCL2), HeLa-S1P1/Gα16 cell clone 1
Procedure: Human S1P1 Receptor Calcium FLIPR Antagonist Assay
The cells are plated in 384 well black plates (10′000 cells per well). […] After washing, the cells are transferred to the FLIPR. The test compounds are added at different concentrations […]) in HBSS in the presence of 0.1% BSA and changes in fluorescence are recorded (indication of agonism). The probing agonist is added 20-30 minutes afterwards to the wells at a concentration giving 80% of the maximal activity (EC80). After each addition, time points are collected as follows: 20 time points (2 seconds) before the addition of the agonist (Fmin) and 60 time points (1 or 2 seconds) after the addition of the probing agonist. This allows the determination of the maximal fluorescence (Fmax). The ratio (Fmax-Fmin)/Fmin is plotted against the log of the concentration of the test compounds and the IC50 (relative antagonism) is calculated using the XLfit-4 software. […] A concentration-response curve of the probing agonist is determined on each plate in parallel.

[1] = male Lewis rats, 14 hours after oral 30 mg/kg, compared to vehicle-only group, mean±SEM

T1 sequence (P21453 whole entry): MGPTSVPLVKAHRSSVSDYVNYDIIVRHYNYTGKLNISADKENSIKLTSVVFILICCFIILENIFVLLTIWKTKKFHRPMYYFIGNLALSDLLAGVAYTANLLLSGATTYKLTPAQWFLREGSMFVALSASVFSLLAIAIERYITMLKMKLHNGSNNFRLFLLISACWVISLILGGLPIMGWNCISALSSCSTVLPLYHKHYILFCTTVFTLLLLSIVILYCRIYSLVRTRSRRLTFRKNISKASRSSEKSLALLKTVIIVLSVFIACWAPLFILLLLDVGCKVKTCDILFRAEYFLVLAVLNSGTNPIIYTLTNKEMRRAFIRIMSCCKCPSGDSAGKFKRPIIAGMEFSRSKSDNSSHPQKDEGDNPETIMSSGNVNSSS

| SMILES | response vs control in vivo at 30 mg/kg (circulating lymphocytes; [1]) | IC50 (human S1P1 receptors) | response vs control in vivo at 30 mg/kg (circulating lymphocytes; po, 14 h) |
| --- | --- | --- | --- |
| Cc1cc(C(Nc2cccc(-c3cc(C)c(C(=O)N[C@@H](C)C(=O)O)c(C)c3)c2)C(F)F)ccc1Cl (stereo partly drawn) [Example 75, (S)-2-({3′-[1-(4-Chloro-3-methyl-phenyl)-2,2-difluoro-ethylamino]-3,5-dimethyl-biphenyl-4-carbonyl}-amino)-propionic acid] | 19.4% | 6 nM |  |
| Cc1cc([C@H](Nc2cccc(-c3cc(C)c(C(=O)NC4(C(=O)O)CC4)c(C)c3)c2)C(F)(F)F)ccc1Cl [Example 112, 1-({3′-[(S)-1-(4-Chloro-3-methyl-phenyl)-2,2,2-trifluoro-ethylamino]-3,5-dimethyl-biphenyl-4-carbonyl}-amino)-cyclopropanecarboxylic acid] | 18.3% | 2 nM |  |
| Cc1cc([C@@H](C)Nc2cccc(-c3cc(C)c(C(=O)N[C@@H](C)C(=O)O)c(C)c3)c2)ccc1Cl [Example 3, (S)-2-({3′-[(R)-1-(4-Chloro-3-methyl-phenyl)-ethylamino]-3,5-dimethyl-biphenyl-4-carbonyl}-amino)-propionic acid] |  |  | 15.5% |
| Cc1cc(C(C)Nc2ccc(F)c(-c3cc(C)c(C(=O)NC4(C(=O)O)CC4)c(C)c3)c2)ccc1Cl (stereo not shown) [Example 26, 1-({5′-[1-(4-Chloro-3-methyl-phenyl)-ethylamino]-2′-fluoro-3,5-dimethyl-biphenyl-4-carbonyl}-amino)-cyclopropanecarboxylic acid] | 12.9% | 1 nM |  |
| Cc1cc([C@@H](C)Nc2ccc(F)c(-c3cc(C)c(C(=O)N[C@@H](C)C(=O)O)c(C)c3)c2)ccc1Cl [Example 23, (S)-2-({5′-[(R)-1-(4-Chloro-3-methyl-phenyl)-ethylamino]-2′-fluoro-3,5-dimethyl-biphenyl-4-carbonyl}-amino)-propionic acid] | 17.4% | 1 nM |  |
| Cc1cc([C@@H](C)Nc2cccc(-c3cc(C)c(C(=O)NC4(C(=O)O)CC4)c(C)c3)c2)cc(C)c1Cl [Example 99, 1-({3′-[(R)-1-(4-Chloro-3,5-dimethyl-phenyl)-ethylamino]-3,5-dimethyl-biphenyl-4-carbonyl}-amino)-cyclopropanecarboxylic acid] | 15.5% | 1 nM |  |
| Cc1cc(C(C)(C)Nc2cccc(-c3cc(C)c(C(=O)N(C)[C@@H](C)C(=O)O)c(C)c3)c2)ccc1Cl [Example 83, (S)-2-({3′-[1-(4-Chloro-3-methyl-phenyl)-1-methyl-ethylamino]-3,5-dimethyl-biphenyl-4-carbonyl}-methyl-amino)-propionic acid] | 15.2% | 2 nM |  |
| COc1cc(C(C)Nc2cccc(-c3cc(C)c(C(=O)N[C@@H](C)C(=O)O)c(C)c3)c2)ccc1F (stereo partly drawn) [Example 15, (S)-2-({3′-[1-(4-Fluoro-3-methoxy-phenyl)-ethylamino]-3,5-dimethyl-biphenyl-4-carbonyl}-amino)-propionic acid] |  | 2 nM |  |
| Cc1cc(C(C)Nc2cccc(-c3cc(F)c(C(=O)N[C@@H](C)C(=O)O)c(F)c3)c2)ccc1Cl (stereo partly drawn) [Example 50, (S)-2-({3′-[1-(4-Chloro-3-methyl-phenyl)-ethylamino]-3,5-difluoro-biphenyl-4-carbonyl}-amino)-propionic acid] |  | 3 nM |  |
| CCC(Nc1cccc(-c2cc(C)c(C(=O)N[C@@H](C)C(=O)O)c(C)c2)c1)c1ccc(Cl)c(C)c1 (stereo partly drawn) [Example 5, (S)-2-({3′-[1-(4-Chloro-3-methyl-phenyl)-propylamino]-3,5-dimethyl-biphenyl-4-carbonyl}-amino)-propionic acid] |  | 2 nM |  |
| COC[C@H](NC(=O)c1c(C)cc(-c2cccc(NC(C)c3ccc(Cl)c(C)c3)c2)cc1C)C(=O)O (stereo partly drawn) [Example 69, (S)-2-({3′-[1-(4-Chloro-3-methyl-phenyl)-ethylamino]-3,5-dimethyl-biphenyl-4-carbonyl}-amino)-3-methoxy-propionic acid] |  | 2 nM |  |
| Cc1cc(C(C)Nc2cccc(-c3ccc(C(=O)N(C)[C@@H](C)C(=O)O)c(C(F)(F)F)c3)c2)ccc1Cl (stereo partly drawn) [Example 63, (S)-2-({3′-[1-(4-Chloro-3-methyl-phenyl)-ethylamino]-3-trifluoromethyl-biphenyl-4-carbonyl}-methyl-amino)-propionic acid] |  | 2 nM |  |
| CCC(Nc1ccc(F)c(-c2ccc(C(=O)N(C)[C@@H](C)C(=O)O)c(Cl)c2)c1)c1ccc(Cl)c(C)c1 (stereo partly shown) [Example 88] |  | 5 nM |  |
| CC[C@H](c1ccc(Cl)c(C)c1)N(C)c1cccc(-c2cc(C)c(C(=O)N(C)C3(C(=O)O)CC3)c(C)c2)c1 [Example 110, 1-[(3′-{[(R)-1-(4-Chloro-3-methyl-phenyl)-propyl]-methyl-amino}-3,5-dimethyl-biphenyl-4-carbonyl)-methyl-amino]-cyclopropanecarboxylic acid] |  | 35 nM |  |
| Cc1cc(C(Nc2cccc(-c3ccc(C(=O)N[C@@H](C)C(=O)O)c(Cl)c3)c2)C(F)(F)F)ccc1Cl (stereo partly shown) [Example 94] |  | 14 nM |  |
| Cc1cc(-c2cccc(NC(C)c3ccc(Cl)c(Cl)c3)c2)ccc1C(=O)N(C)[C@@H](C)C(=O)O (stereo partly drawn) [Example 78, (S)-2-({3′-[1-(3,4-Dichloro-phenyl)-ethylamino]-3-methyl-biphenyl-4-carbonyl}-methyl-amino)-propionic acid] |  | 7 nM |  |
| Cc1cc(C(C)Nc2cccc(-c3cc(C)c(C(=O)NC4(C(=O)O)CCC4)c(C)c3)c2)ccc1Cl (stereo not shown) [Example 72, 1-({3′-[1-(4-Chloro-3-methyl-phenyl)-ethylamino]-3,5-dimethyl-biphenyl-4-carbonyl}-amino)-cyclobutanecarboxylic acid] |  | 2 nM |  |
| Cc1cc(C(C)Nc2ccc(F)c(-c3ccc(C(=O)N(C)[C@@H](C)C(=O)O)c(Cl)c3)c2)ccc1Cl (stereo partly drawn) [Example 87, (S)-2-({3-Chloro-5′-[1-(4-chloro-3-methyl-phenyl)-ethylamino]-2′-fluoro-biphenyl-4-carbonyl}-methyl-amino)-propionic acid] |  | 4 nM |  |
| Cc1cc(C(C)Nc2cccc(-c3ccc(C(=O)N(C)[C@@H](C)C(=O)O)c(C(F)(F)F)c3)c2)cc(C)c1Cl (stereo partly drawn) [Example 65, (S)-2-({3′-[1-(4-Chloro-3,5-dimethyl-phenyl)-ethylamino]-3-trifluoromethyl-biphenyl-4-carbonyl}-methyl-amino)-propionic acid] |  | 6 nM |  |
| COc1ccc(C(C)Nc2cccc(-c3cc(C)c(C(=O)N[C@@H](C)C(=O)O)c(C)c3)c2)cc1C (stereo partly drawn) [Example 30, (S)-2-({3′-[1-(4-Methoxy-3-methyl-phenyl)-ethylamino]-3,5-dimethyl-biphenyl-4-carbonyl}-amino)-propionic acid] |  | 2 nM |  |
| COc1c(C)cc(C(C)Nc2cccc(-c3cc(C)c(C(=O)N[C@@H](C)C(=O)O)c(C)c3)c2)cc1C (stereo partly drawn) [Example 37, (S)-2-({3′-[1-(4-Methoxy-3,5-dimethyl-phenyl)-ethylamino]-3,5-dimethyl-biphenyl-4-carbonyl}-amino)-propionic acid] |  | 2 nM |  |
| CC[C@@H](Nc1cccc(-c2cc(C)c(C(=O)N(C)C3(C(=O)O)CC3)c(C)c2)c1)c1ccc(Cl)c(C)c1 [Example 111, 1-({3′-[(R)-1-(4-Chloro-3-methyl-phenyl)-propylamino]-3,5-dimethyl-biphenyl-4-carbonyl}-methyl-amino)-cyclopropanecarboxylic acid] |  | 8 nM |  |
| CCC(Nc1ccc(F)c(-c2ccc(C(=O)N(C)[C@@H](C)C(=O)O)c(C)c2)c1)c1ccc(Cl)c(C)c1 (stereo partly drawn) [Example 86, (S)-2-({5′-[1-(4-Chloro-3-methyl-phenyl)-propylamino]-2′-fluoro-3-methyl-biphenyl-4-carbonyl}-methyl-amino)-propionic acid] |  | 6 nM |  |
| CC[C@@H](Nc1cccc(-c2cc(C)c(C(=O)N[C@@H](C)C(=O)O)c(C)c2)c1)c1cc(C)c(Cl)c(C)c1 [Example 101, (S)-2-({3′-[(R)-1-(4-Chloro-3,5-dimethyl-phenyl)-propylamino]-3,5-dimethyl-biphenyl-4-carbonyl}-amino)-propionic acid] |  | 1 nM |  |
| Cc1cc(C(C)N(C)c2cccc(-c3cc(C)c(C(=O)N[C@@H](C)C(=O)O)c(C)c3)c2)ccc1Cl (stereo partly drawn) [Example 80, (S)-2-[(3′-{[1-(4-Chloro-3-methyl-phenyl)-ethyl]-methyl-amino}-3,5-dimethyl-biphenyl-4-carbonyl)-amino]-propionic acid] |  | 4 nM |  |
